The values below come from patent US20210386791A1, “METHODS OF CELLULAR REPROGRAMMING” (TissueTech, Inc., priority 2018, published 2021).

Type in all cases: cell-based
The test system of experiment [1] is human corneal fibroblasts (HCF). The experiment in a line: Reversal of HCF to keratocytes on immobilized HC-HA/PTX3 with or without SB431542 or AMD3100. Here is the method:
A total of 86 human corneas from individuals aged 18-76 years and maintained at 4° C. in Optisol (Chiron Vision, Irvine, Calif.) for less than 7 days after death were obtained from the Florida Lions Eye Bank (Miami, Fla.) and handled according to the declaration of Helsinki. HCF were isolated and cultured. Briefly, the sheets of the epithelium and the endothelium were removed from corneas, the stroma sections were cut into cubes of approximately 1 mm3, incubated in 2 mg/ml collagenase for 16 h at 37° C., and then placed in a culture medium consisting of DMEM supplemented with 10% fetal bovine serum containing […]. The culture medium was refreshed twice a week. The cells cultured to passage 3 were used for all experiments. To reverse fibroblasts or myofibroblasts into keratocytes, fibroblasts or myofibroblasts were cultured on immobilized HC-HA/PTX3 in DMEM+10% FBS for 3 days using the samples from the cells on plastic and HA as the controls. Some of the cell cultures were extended to up to 7 days of culture to monitor the expression of α-SMA formation. Total RNAs were extracted using RNeasy Mini Kit (Qiagen) and reverse-transcribed using High Capacity Reverse Transcription Kit (Applied Biosystems). cDNA was amplified by real-time RT-PCR using specific primer-probe mixtures and DNA polymerase in Quant Studio 5 Real-time PCR System (Applied Biosystems). Real-time RT-PCR profile consisted of 10 min of initial activation at 95° C., followed by 40 cycles of 15 s denaturation at 95° C., and 1 min annealing and extension at 60° C. The genuine identity of each PCR product was confirmed by the size determination using 2% agarose gels followed by ethidium bromide staining together with PCR marker according to EC3 Imaging System (BioImaging System, Upland, Calif.). The samples of human corneal fibroblasts, myofibroblasts and corneal keratocytes were air-dried and fixed in 4% formaldehyde, pH 7.0, for 15 min at room temperature, rehydrated in PBS, incubated with 0.2% Triton X-100 for 15 min, and rinsed 3 times with PBS for 5 min each. […] After three washes with PBS, they were incubated with corresponding Alexa-Fluor-conjugated secondary IgG (all 1:100 dilution) for 60 min. The samples were then counterstained with Hoechst 33342 and analyzed in Zeiss LSM 700 confocal microscope (Thornhood, N.Y.). Corresponding mouse and rabbit sera were used as negative controls for primary monoclonal and polyclonal antibodies, respectively. Cell lysates were prepared in RIPA buffer and resolved on 4-15% (w/v) gradient acrylamide gels under denaturing and reducing conditions for Western blotting. The protein extracts were transferred to the nitrocellulose membrane, which was then blocked with 5% (w/v) fat-free milk in TBST [50 mM Tris-HCl, pH 7.5, 150 mM NaCl, 0.05% (v/v) Tween-20], followed by sequential incubation with the specific primary antibody against keratocan and its respective horseradish peroxidase (HRP)-conjugated secondary antibody using β-actin as the loading control. Immunoreactive proteins were detected with Western Lighting Chemiluminescence (PerkinElmer, Waltham, Mass.).

The subject of experiment [2] is P10 LNC (human limbal niche cells). The experiment is described as follows: P10 LNC on coated MG with soluble HC-HA/PTX3 with or without AMD3100, LDN-193189 or BMP receptor siRNAs. Conditions: for upregulation of CXCR4 transcript by soluble HC-HA/PTX3: with CXCR4 inhibitor. The protocol:
Upon 80% confluence, P10 LNC cultured on coated Matrigel™ (MG) were pre-treated with 0.1% DMSO with or without 20 μg/mL AMD3100 or 100 nM LDN-193189 for 30 min before being trypsinized and seeded at 2×10^5/mL on coated MG in MESCM containing 20 μg/mL of AMD3100 or 100 nM LDN-193189 with 25 μg/mL soluble HC-HA/PTX3 for another 48 h. For the siRNA knockdown, 80% confluent P10 LNC on 6-well coated MG were subjected to transfection by mixing 200 μl of serum-free, antibiotic-free MESCM with 4 μL of HiPerFect siRNA transfection reagent (final dilution, 1:300) and 6 μl of 20 μM of scRNA or siRNAs for BMPR1A, BMPR1B, BMPR2, and ACVR1 at the final concentration of 100 nM, drop-wise, followed by culturing in 1 mL of fresh MESCM at 37° C. for 24 h before soluble HC-HA/PTX3 was added at a final concentration of 25 μg/mL in the MESCM medium.
RNA extract was reverse transcribed to cDNA with reverse-transcribed using High Capacity Reverse Transcription Kit (Applied Biosystems, Foster City, Calif.) using primers listed in Supplementary Table S3. The resultant cDNAs were amplified by specific TaqMan gene expression assay mix and universal PCR master mix in QuantStudio™ 5 Real Time PCR System (ThermoFisher, Santa Clara, Calif.) with real-time RT-PCR profile consisting of 10 min of initial activation at 95° C., followed by 40 cycles of 15 sec denaturation at 95° C., and 1 min annealing and extension at 60° C. The relative gene expression data were analyzed by the comparative CT method (MET). All assays were performed in triplicate. The results were normalized by glyceraldehyde 3-phosphate dehydrogenase (GAPDH) as an internal control.
Single cells of LNC at different passages were harvested with 0.05% trypsin and 1 mM EDTA at 37° C. for 10 min and prepared for cytospin using Cytofuge (StatSpin Inc., Norwood, Mass.) at 1000 rpm for 8 min. Cells were fixed with 4% formaldehyde, pH 7.0, for 15 min at room temperature, permeabilized with 0.2% Triton X-100 in PBS for 15 min and blocked with 2% bovine serum albumin (BSA) for 1 h before incubated with primary antibodies for 16 h at 4° C. After 3 washes with PBS, the corresponding Alexa Fluor-conjugated secondary IgG (all 1:100 dilution) were incubated for 60 min and 3 washing with PBS. After 3 washes with PBS, the second primary antibodies was incubated for 60 min and followed with the corresponding Alex Fluor-conjugated secondary IgG. The nucleus was counterstained with Hoechst 33342 before being analyzed with Zeiss LSM 700 confocal microscope (Carl Zeiss, Thornwood, N.Y.). Corresponding mouse and rabbit sera were used as negative controls for primary monoclonal and polyclonal antibodies, respectively.

Experiment [3] deals with human corneal fibroblasts (HCF). The experiment in a line: Timing course analysis of SDF1/CXCR4 and BMP signaling in HCF.
Experiment [4] shares this test system. The experiment in a line: P3 HCF on plastic with or without immobilized HA or HC-HA/PTX3, with or without TGFβ1: mRNA, ELISA, Western blot, immunostaining. The conditions noted are these: with TGFβ1. Here is the method:
A total of 89 human corneas from individuals aged 18-76 years and maintained at 4° C. in Optisol (Chiron Vision, Irvine, Calif.) for less than 7 days after death were obtained from the Florida Lions Eye Bank (Miami, Fla.) and handled according to the declaration of Helsinki. HCF were isolated and cultured. Epithelial and endothelial cells were removed from corneas, the stroma was cut into cubes of approximately 1 mm^3, incubated in 2 mg/ml collagenase for 16 h at 37° C., and then placed in a culture medium consisting of Dulbecco's modified Eagle's medium (DMEM) supplemented with 10% fetal bovine serum containing […]. The culture medium was changed twice a week. The morphology of the cells was monitored by Nikon Eclipse TS 100 microscope (Melville, N.Y.). Cells cultured to passage 3 (P3) were used for all experiments.
Human corneal fibroblasts (P3) were seeded on plastics with or without immobilized HC-HA/PTX3 complex for 72 h in DMEM+10% FBS, then serum starved for 24 h and treated with or without TGFβ1 for 24 h before being harvested for mRNA quantitation or immunostaining. For determination of protein of TGFβ receptor or p75NTR, the cells were treated with or without TGF-β1 for 48 h before collection of protein samples because the protein expression lags behind mRNA expression. For TGF-β1 ELISA, the cells were treated with or without TGF-β1 for 24 h, and then cultured in the fresh medium for another 24 h. The supernatants were collected for TGFβ1 ELISA. For TGFβ2 and TGFβ3 ELISA, the cells were treated with or without TGFβ1 for 48 h. Certain HCF were seeded on glass in DMEM+10% FBS for 24 h, then in DMEM+ITS (insulin-transferrin-selenium) for 24 h, treated with/without PBS or hyaluronic acid (HA) or HC-HA/PTX3±TGFβ1 (10 ng/ml)±Marimastat (10 μM) or ±DAPT (10 μM) or ±both for 0, 5, 15, 30 and 45 minutes before being harvested for immunostaining of CD44-ICD, JNK1, Cyclin D1 and p75NTR and for 5 minutes before being harvested for Western blotting of cytoplasmic and nuclear CD44-ICD, active MT1-MMP, and active γ-secretase after compartmental separation of the cellular components.
Total RNAs were extracted using RNeasy Mini Kit and were reverse transcribed using High Capacity Reverse Transcription Kit (Applied Biosystems). cDNA obtained was amplified by real-time RT-PCR using specific primer-probe mixtures and DNA polymerase in 7000 Real-time PCR System (Thermo-Fisher Scientific, Carlsbad, Calif.). Real-time RT-PCR profile consisted of 10 minutes of initial activation at 95° C., followed by 40 cycles of 15 seconds denaturation at 95° C., and 1 min annealing and 1 min extension at 60° C. The genuine identity of each PCR product was confirmed by the size determination using 2% agarose gels followed by ethidium bromide staining together with PCR marker according to EC3 Imaging System (BioImaging System, Upland, Calif.).
The Quantikine Human ELISA Kits of TGFβs were used for determination of TGFβs following the manufacturer's instructions (R and D Systems, Minneapolis, Minn.).
HCF, induced human corneal endothelial cells (HCEC), and HCEC monolayer cultures were air-dried and fixed in 4% formaldehyde, pH 7.0, for 15 min at room temperature, rehydrated in PBS, incubated with 0.2% Triton X-100 for 15 min, and rinsed three times with PBS for 5 min each. After incubation with 2% BSA to block non-specific staining for 30 min, they were incubated with the desired first antibody (all at 1:50 dilution) for 16 h at 4° C. After three washes with PBS, they were incubated with corresponding Alexa-Fluor-conjugated secondary IgG (all 1:100 dilutions) for 60 min. The samples were then counterstained with Hoechst 33342 and analyzed with Zeiss LSM 700 confocal microscope (Thornhood, N.Y.). Corresponding mouse and rabbit sera were used as negative controls for primary monoclonal and polyclonal antibodies, respectively. […]

The mark [5] stands for this setting: HCF on HC-HA/PTX3 with CXCR4 inhibitor.
Where [6] appears, read: soluble HC-HA/PTX3 with AMD3100.

On to `c1cc(CN2CCCNCCNCCCNCC2)ccc1CN1CCCNCCNCCCNCC1` [AMD3100], for which, in experiment [1] (setting [5]), the “cell aggregation, mRNA overexpression of SDF1 and CXCR4, CXCR4 nuclear translocation” value is reported as “completely attenuated”; the keratocan protein expression result was “blockade”; the “transcript expression of BMP4, BMP6, BMPR1A, BMPR1B, BMPR2 and nuclear translocation of pSMAD1/5” value was “completely nullified”. For the same compound, the “immunostaining of SDF-1” value in experiment [2] (after addition of AMD3100) was “became negative”. In experiment [2] (setting [6]), the “Pax6, p75NTR, NGF, Musashi-1, Msx-1 and FoxD3 transcripts” value is “significant downregulation”; the “immunofluorescence staining pattern of CXCR4” value is on record as “reverted to that of 3D MG”; the “staining of pSmad1/5/8” value is “deactivated to cytoplasmic staining”. The “transcript levels of BMP2, BMP4 and BMP6” value in experiment [2] (soluble HC-HA/PTX3 with AMD3100, throughout 48 h) is “aborted”. In experiment [2] (with AMD3100), the “nuclear Pax6 staining promoted by soluble HC-HA/PTX3” value is given as “aborted”. Moreover, the “cell aggregation promoted by soluble HC-HA/PTX3” value in experiment [2] (with AMD3100 20 μg/mL, 60 min) is recorded as “completed aborted”. Besides, the “upregulation of SDF-1 transcript by soluble HC-HA/PTX3” value in experiment [2] (with AMD3100, 24 h) is recorded as “completely abolished”. Moreover, the “upregulation of CXCR4 transcript by soluble HC-HA/PTX3” value in experiment [2] (24 h) is on record as “significantly downregulated”. The “upregulation of CXCR4 transcript by soluble HC-HA/PTX3” value in experiment [2] (48 h) is recorded as “completely aborted”. Moreover, in experiment [3] (with AMD3100), the “aggregation and expression of SDF1, CXCR4, BMP4 and BMP6 induced by HC-HA/PTX3” value is “completely blocked”; the “nuclear translocation of CXCR4 and pSMAD1/5” value is on record as “eliminated”.

For the compound `c1ccc2c(-c3cnn4cc(-c5ccc(N6CCNCC6)cc5)cnc34)ccnc2c1` [LDN-193189], in experiment [2] (BMP signaling suppressed), the “transient nuclear translocation of CXCR4 and nuclear Pax6 staining” value was “not affected”. For the same compound, the “cell aggregation by soluble HC-HA/PTX3” value in experiment [2] (BMP signaling suppressed, compared to scRNA control) is reported as “not affect”. Besides, in experiment [2] (BMP signaling suppressed, throughout 48 h), the “expression level of CXCR4 and SDF-1” value is reported as “no significant difference”.

As to `NC(=O)c1ccc(-c2nc(-c3ccc4c(c3)OCO4)c(-c3ccccn3)[nH]2)cc1` [SB431542], the “BMP signaling and keratocan mRNA and protein expression” value in experiment [1] (HCF on HC-HA/PTX3 with BMP inhibitor) is reported as “completely inhibited”. The “aggregation, expression of SDF1 and CXCR4 and nuclear translocation of CXCR4” value in experiment [3] (HC-HA/PTX3 with SB431542) is given as “did not affect”. In experiment [3] (with SB431542), the “expression of BMP4 and BMP6 and nuclear translocation of pSMAD1/5 induced by HC-HA/PTX3” value is on record as “completely inhibited”.

Take “TGFβ1: exogenous transforming growth factor β1, 10 ng/ml challenge”: in experiment [4], the “NC marker mRNA, p75NTR protein and p75NTR nuclear translocation” value was “upregulated on plastic”.
